# Legend:
# [1] = Particle size of mirdametinib drug substance lots (laser diffraction particle sizing); format: physicochemical; conditions: mirdametinib free base drug substance
# Excerpt: As used herein, “D50” or “d50”, also known as the median diameter, corresponds to the value under which 50% of the particles has a lower volume diameter. “D90” or “d90” corresponds to the value under which 90% of the particles has a lower volume diameter. The particle size may be measured using wet standard laser diffraction particle sizing techniques known in the art. One example of an instrument to measure the particle size of the dry powders is the Mastersizer 3000, manufactured by Malvern Panalytical Ltd. (Malvern, UK). As particles are often non-spherical, it is difficult and complex to provide dimensional descriptions of these non-spherical particles. As used herein, “volume diameter” refers to diameter of a sphere with equal volume of the non-spherical particle.
# (§1) Mirdametinib free base (Lots #1, 2, and 3) having the properties in the table below were prepared.
# [2] = Bulk and tap density, Carr's Index of drug substance lots; format: physicochemical; conditions: mirdametinib free base drug substance
# Description: as §1
D10 [1] [μm],D50 [1] [μm],D90 [1] [μm],Bulk density [2] [g/mL],Carr's Index [2],Tap density [2] [g/mL],Structure (SMILES)
4.9,20.9,101.5,0.169,57.1,0.394,"O=C(NOC[C@H](O)CO)c1ccc(F)c(F)c1Nc1ccc(I)cc1F [Lot 1, N—((R)-2,3-dihydroxypropoxy)-3,4-difluoro-2-(2-fluoro-4-iodo-phenylamino)benzamide]"
7.6,28.4,120.7,0.197,54.6,0.434,"O=C(NOC[C@H](O)CO)c1ccc(F)c(F)c1Nc1ccc(I)cc1F [Lot 2, N—((R)-2,3-dihydroxypropoxy)-3,4-difluoro-2-(2-fluoro-4-iodo-phenylamino)benzamide]"
17.8,46.5,217.1,,,,"O=C(NOC[C@H](O)CO)c1ccc(F)c(F)c1Nc1ccc(I)cc1F [Lot 3, N—((R)-2,3-dihydroxypropoxy)-3,4-difluoro-2-(2-fluoro-4-iodo-phenylamino)benzamide]"
